Results from US8420605B2, “Hydrogel compositions” (The University of Strathclyde, priority 2005, dated 2013).
Peptide text beside a SMILES is read from it. * marks the point of attachment. Fmoc = O=C(OCC1c2ccccc2-c2ccccc21)*

Tests used:
Assay type in all cases: cell-based
[1] = system: human adult dermal fibroblasts; test: LDH assay of cell viability (3D culture)
Experimental: In order to quantitatively test cell viability in the 3D culture, LDH assay was adopted which tested the amount of lactate dehydrogenase inside cell […] (reflecting cell numbers).
(§1) 0.0107 gram of Fmoc-Phe-Phe-OH was weighed in a glass vial and sterilized for 30 minutes by an ultraviolet light with bottles of distilled water, filtered NaOH (Sodium Hydroxide, 0.5 M/L), filtered HCl (Hydrochloric Acid, 0.5 M/L), and relevant apparatus (spatulas, pipettes, Vortex). 2 mL of the sterile distilled water was then added into the glass vial of Fmoc-Phe-Phe-OH, and the mixture was vortexed for a few seconds to create a suspension. Afterwards, approximate 100 μL of NaOH was gradually pipetted into the suspension (20 μL each pipetting) and the mixture was vortexed after every addition of the alkaline. The whole mixture was shaken continually until a homogeneous transparent solution was obtained. The basic peptide solution (pH around 10) was finally neutralized to pH 7 by dropwise addition of HCl and pH values were monitored by a pH meter with a micro-probe. […]
The culture was maintained in a 37° C./5% CO2 incubator for a 10 day period and LDH assay was carried out after 1 hour, 1 day, 3 days, 7 days, and 10 days. […] Assay reagent was then added, the mixture was incubated, and light absorbance at 490 nm was then measured. Absorbance was converted to cell number according to a standard. […]

[2] = system: Human dermal fibroblasts
Excerpt: In order to coarsely test cell viability, a Live/Dead assay was chosen in which two reagents of EthD-1 and Calcine AM were involved. […] With the help of this staining and fluorescence microscope, living and dead cells could be easily visualized therefore viability inside the culture is measured.
as §1, with “For making Fmoc-Phe-Phe-OH peptide solution, 0.0107” for “0.0107”, “The whole mixture was shaken continually until a homogeneous transparent solution was obtained.” left out

[3] = system: human adult dermal fibroblasts; test: 2D culture on surface of self-assembled peptide hydrogel, cell phenotype under inverted light microscope; settings: for appearance of fibroblasts on top of hydrogel: 10 mM/L gel
Experimental: An initial 2D culture of human adult dermal fibroblasts was carried out on the surface of 10 mM/L Fmoc-Phe-Phe-OH self-assembled peptide hydrogels and cell phenotype was investigated under inverted light microscope.
Generally, 0.0107 gram of Fmoc-Phe-Phe-OH was weighed in a glass vial and sterilized for 30 minutes by an ultraviolet light with bottles of distilled water, filtered NaOH (Sodium Hydroxide, 0.5 M/L), filtered HCl (Hydrochloric Acid, 0.5 M/L), and relevant apparatus (spatulas, pipettes, Vortex). 2 mL of the sterile distilled water was then added into the glass vial of Fmoc-Phe-Phe, and the mixture was vortexed for a few seconds to create a suspension. Afterwards, approximate 100 μL of NaOH was gradually pipetted into the suspension (20 μL each pipetting) and the mixture was vortexed after every addition of the alkaline. The whole mixture was shaken continually until a homogeneous transparent solution was obtained. The basic peptide solution (pH around 10) was finally neutralized to pH 7 by dropwise addition of HCl and pH values were monitored by a pH meter with a micro-probe.
The above peptide solutions of physiological pH were aliquoted into a 24 well-plate with 500 μL in each well and the well plate was maintained in a 37° C./5% CO2 incubator overnight. The solution underwent a self-assembling to become hydrogels. Human adult dermal fibroblasts in suspension were then poured on top of the self-assembled hydrogels with 1 mL cell suspension for each well. Cell suspensions of 8×10^4/mL were used with a serum-free DMEM (Dulbecco's modified Eagle's medium) supplemented by 1% antibiotics/antimicotics. […] These originally spreaded cells, however, became rounded with a diameter of around 10 microns between 24 and 72 hours. The phenomenon indicated of a dynamic solid (gel)-liquid (culture medium) interface which formed a malleable, unstable gel surface to wrap and sink cells into the interacted nano-filaments of the gel structure resulting the cells' rounding up.

O=C(N[C@@H](Cc1ccccc1)C(=O)N[C@@H](Cc1ccccc1)C(=O)O)OCC1c2ccccc2-c2ccccc21 [Entry 1, Fmoc-Phe-Phe-OH] (Fmoc-Phe-Phe-OH)
cell number (LDH assay), initial course ([1]; 3D culture, 10 day period): initially a decreasing of cell numbers | cell number increase (LDH assay) ([1]; from day 7 to day 10, 3D culture): 5 folds | cell viability (live/dead staining) [2]: majority of cells were shown to be living | cell spreading in the gel ([2]; during the first 3 days, 3D culture): did not complete spreading | appearance of fibroblasts on top of hydrogel ([3]; 4 hours, 2D culture): spreaded | appearance of fibroblasts on top of hydrogel ([3]; 6 hours, 2D culture): spreaded | appearance of fibroblasts on top of hydrogel ([3]; 24 hours, 2D culture): rounded | diameter of rounded cells ([3]; between 24 and 72 hours, 2D culture): around 10 microns | cell attachment and spreading ([3]; within the first 8 hours of culturing, 2D): cell attachment and spreading was observed
